From article PMC8003796, “Identification of Anti-Severe Acute Respiratory Syndrome-Related Coronavirus 2 (SARS-CoV-2) Oxysterol Derivatives In Vitro” (International Journal of Molecular Sciences, 2021)
Where “and” joins values, the source holds several entries; their conditions need not be identical. Equal values may be shown once. Read-outs that look alike come from different tables or passages of the source.

Legend:
in vitro = conditions: African green monkey
SARS-CoV-2 [1] = assay: SARS-CoV-2 infection assay, viral RNA in culture supernatant by real-time RT-PCR; type: cell-based, SARS-CoV-2 Wk-521 strain; conditions: for IC90: Severe acute respiratory syndrome coronavirus 2, read-out: IC90 (90% maximal inhibitory concentration); for IC90 / IC50: viral RNA in culture supernatant, VeroE6/TMPRSS2 cells; for IC90 / IC50 / reduction of the production of viral RNA as compared to control / reduction of viral RNA production / effect on viral RNA level (in words): 24 h post-inoculation; for IC50: Severe acute respiratory syndrome coronavirus 2, read-out: IC50 (50% maximal inhibitory concentration); for reduction of the production of viral RNA as compared to control: natural oxysterols, concentrations up to 30 μM; for reduction of viral replication: 10 μM; for reduction of viral RNA production: 15 μM; for effect on viral RNA level (in words): semi-synthetic oxysterols, up to 15 μM
SARS-CoV-2 [2] = assay: Time of addition assay (whole life cycle, entry, post-entry); type: cell-based, SARS-CoV-2 Wk-521 strain; conditions: 10 μM Oxy210, 10 μM Oxy133; for viral RNA, compound present post-entry (in words): 15 μM RDV, added 2 h post-inoculation for 21 h
[3] = Cell viability by MTT assay; conditions: African green monkey, VeroE6 cells stably overexpressing TMPRSS2
SARS-CoV-2 [4] = assay: Viral N protein by indirect immunofluorescence; type: cell-based, SARS-CoV-2 Wk-521 strain; conditions: 10 μM RDV, 30 μM cholesterol, 30 μM 7-KC, 10 μM Oxy133, 10 μM Oxy210
SARS-CoV-2 [5] = assay: Virus-induced cytopathic effect (CPE) viewed under a microscope; type: cell-based, SARS-CoV-2 Wk-521 strain; conditions: 48 h post-inoculation; 10 μM RDV, 30 μM cholesterol, 30 μM 7-KC, 10 μM Oxy133, 10 μM Oxy210
TGFβ signaling [6] = assay: TGFβ activity, CTGF mRNA in NIH3T3 cells; type: cell-based; conditions: 10 μM, NIH3T3 cells stimulated with 20 ng/mL TGFβ
Experimental: (§1) Scale bar, 100 μm. (B) Viral N protein in the cells was detected by immunofluorescence analysis as described in Figure 1C. Scale bar, 50 μm. (C) Dose-response curves for viral RNA upon treatment with oxysterol derivatives as indicated. The secreted viral RNA in the culture supernatant at 24 h post-inoculation was quantified by real-time RT-PCR and plotted against compound concentration. The chemical structures of oxysterols are also shown above the graphs. (D) Viability of cells treated with the compounds was quantified using an MTT assay. (E,F) Inhibitory effects toward transforming growth factor β (TGFβ) and hedgehog (Hh) signaling. […] Cellular mRNAs were extracted to quantify a TGFβ-downstream gene, connective tissue growth factor (CTGF) (E), a Hh target gene, Gli1 (F), and Oaz1 for normalization of CTGF and Gli1 (E,F).
(§2) TGFβ activity was examined with NIH3T3 cells precultured with DMEM containing 0.1% bovine calf serum (BCS) overnight. NIH3T3 cells were pretreated with the compounds for 2 h and then stimulated with TGFβ1 (20 ng/mL) in the presence or absence of compounds. After 48 h, RNA was extracted from the cells and analyzed for quantifying the mRNA for a TGFβ target gene, connective tissue growth factor (CTGF), and Oaz1 for normalization. […] Cellular RNA was extracted and analyzed for the expression of a Hh target gene, Gli1, and normalized to Oaz1 expression.

Hh signaling [7] = assay: Hedgehog activity, Gli1 mRNA in NIH3T3 cells; type: cell-based; conditions: 10 μM, CAPAN-1 conditioned medium containing Shh
Experimental: as §1, §2

VeroE6/TMPRSS2 cells = assay: Cell viability by MTT assay; conditions: up to 15 μM
hepatitis C virus (HCV) = assay: HCV replication assay, luciferase in LucNeo#2 replicon cells; type: cell-based, HCV NN strain (genotype-1b); conditions: 10 μM Oxy210, 1 μM sofosbuvir, 48 h
Experimental: N, nucleus; M, mitochondria; *, double-membrane vesicle.
HCV replication activity was measured using LucNeo#2 cells, carrying a subgenomic replicon RNA for an HCV NN strain (genotype-1b) and the luciferase gene driven by the HCV replication. LucNeo#2 cells were treated with the compounds indicated in Figure 3C for 48 h, and the luciferase activity was measured with Luciferase Assay System kit (Promega, Madison, WI, USA).

[8] = Pharmacokinetics in mice, single oral gavage dose; type: in vivo, balb/c mice; conditions: single oral dose 200 mg/kg; for Cmax: 200 mg/kg, read-out: Cmax (peak plasma concentration)
Hh signaling [9] = conditions: fibroblastic cells and tumor cells ref 16; cited from earlier work
TGFβ signaling [10] = conditions: fibroblastic cells and tumor cells ref 16; cited from earlier work
SARS-CoV-2 [11] = assay: Electron microscopy of double-membrane vesicle formation in infected cells; conditions: 10 μM, VeroE6/TMPRSS2 cells, MOI 1, 7 h

Structure (SMILES)	CC50 (in vitro)	IC90 (SARS-CoV-2 [1])	IC50 (SARS-CoV-2 [1])	reduction of the production of viral RNA as compared to control (SARS-CoV-2 [1])	effect on virus propagation / spread of infection, N protein (in words) (SARS-CoV-2 [4])	effect on SARS-CoV-2-induced CPE (in words) (SARS-CoV-2 [5])	effect on viral RNA level (in words) (SARS-CoV-2 [1])	also measured
CC(C)CC[C@@H](O)[C@@H](C)[C@H]1CC[C@H]2[C@@H]3CC=C4C[C@@H](O)CC[C@]4(C)[C@H]3CC[C@]12C [22(R)-OHC, 22(R)-hydroxycholesterol]	> 30 µM	> 30 µM	13.2 µM	80%–86%				
CCC(CC)COC(=O)[C@H](C)N[P@](=O)(OC[C@H]1O[C@@](C#N)(c2ccc3c(N)ncnn23)[C@H](O)[C@@H]1O)Oc1ccccc1 [RDV, remdesivir, reference compound]		2.5 µM	1.5 µM		blocked	blocked the virus-induced CPE		viral RNA, compound present post-entry (in words) (SARS-CoV-2 [2]): remarkable inhibition; CC50 at 24 h [3]: > 10 µM
CC[C@@](O)(CCc1cccnc1)[C@H]1CC[C@H]2[C@@H]3CC[C@H]4C[C@@H](O)CC[C@]4(C)[C@H]3CC[C@]12C [Oxy232]	> 15 µM	7.8 µM	5.4 µM				reduced viral RNA level in a dose-dependent manner	inhibition of TGFβ signaling (CTGF mRNA, in words) (TGFβ signaling [6]): devoid of significant TGFβ inhibitory properties; inhibition of Hh signaling (Gli1 mRNA, in words) (Hh signaling [7]): retains inhibitory activity toward Hh signaling; cytotoxicity / cell viability (in words) (VeroE6/TMPRSS2 cells): slightly reduced cell viability when used at concentrations above 10 μM; reduction of viral replication (SARS-CoV-2 [1]): more than 90%; reduction of viral RNA production (SARS-CoV-2 [1]): 99.9% and > 99%
CCCCCC[C@@](C)(O)[C@H]1CC[C@H]2[C@@H]3C[C@H](O)[C@H]4C[C@@H](O)CC[C@]4(C)[C@H]3CC[C@@]21C [Oxy133]	> 15 µM	> 15 µM	> 15 µM				did not show antiviral activity up to 15 μM	
C[C@@H](CO)CCC[C@@H](C)[C@H]1CC[C@H]2[C@@H]3CC=C4C[C@@H](O)CC[C@]4(C)[C@H]3CC[C@]12C [27-OHC, 27-hydroxycholesterol]	> 30 µM	> 30 µM	3.5 µM	80%–86%				
C[C@]12CC[C@H]3[C@@H](CC=C4C[C@@H](O)CC[C@@]43C)[C@@H]1CC[C@@H]2[C@](C)(O)CCc1cccnc1 [Oxy210]	> 15 µM	8.6 µM	5.5 µM		blocked	blocked	reduced viral RNA level in a dose-dependent manner	viral RNA, compound present in the whole life cycle (in words) (SARS-CoV-2 [2]; 24 h): clearly reduced viral RNA levels; viral RNA, compound present post-entry (in words) (SARS-CoV-2 [2]): clearly reduced viral RNA levels; HCV replication, luciferase activity (in words) (hepatitis C virus (HCV)): reduced the DMV-dependent RNA replication of HCV; Cmax ([8]; balb/c, mouse, in vivo, po, plasma): 8160 ng/mL and 19.4 µM; MRT ([8]; balb/c, mouse, in vivo, plasma): 3.5 h; Tmax ([8]; balb/c, mouse, in vivo, plasma): 1 h; AUC(0-inf) ([8]; balb/c, mouse, in vivo, plasma, read-out: AUC (AUCinf)): 29300 ng·h/mL; tolerability (in words) [8]: well tolerated; Cmax ([8]; plasma): ~19 µM; inhibition of Hh signaling (in words) (Hh signaling [9]): inhibited; cytotoxicity / cell viability (in words) (VeroE6/TMPRSS2 cells): No significant cytotoxicity; inhibition of TGFβ signaling (in words) (TGFβ signaling [10]): inhibited; DMV formation in SARS-CoV-2-infected cells (in words) (SARS-CoV-2 [11]): remarkably reduced the DMV formation; reduction of viral replication (SARS-CoV-2 [1]): more than 90%; reduction of viral RNA production (SARS-CoV-2 [1]): 99.4% and > 99%
CC(C)CCC[C@@H](C)[C@H]1CC[C@H]2[C@@H]3C(=O)C=C4C[C@@H](O)CC[C@]4(C)[C@H]3CC[C@]12C [7-KC, 7-ketocholesterol]	> 30 µM	> 30 µM	14.5 µM	80%–86%	reduced	reduced the SARS-CoV-2-induced CPE		
CC(C)OC(=O)[C@H](C)N[P@](=O)(OC[C@H]1O[C@@H](n2ccc(=O)[nH]c2=O)[C@](C)(F)[C@@H]1O)Oc1ccccc1 [sofosbuvir, reference compound]								HCV replication, luciferase activity (in words) (hepatitis C virus (HCV)): positive control
